Laboratory results reported in ChEMBL document CHEMBL4359905, “Discovery, structural insight, and bioactivities of BY27 as a selective inhibitor of the second bromodomains of BET proteins” (Eur J Med Chem, 2019).

Assays:
HepG2 [1] = experiment: Downregulation of ARID5B in human HepG2 cells after 4 hrs by qRT-PCR analysis; assay type: functional, cell-based
MV4-11 [2] = experiment: Antitumour activity against human MV4-11 cells xenografted in BALB/c nu/nu mouse assessed as tumour growth inhibition at 60 mg/kg, po via gavage administered once daily for 21 days and measured every 2 to 3 days by vernier caliper method relative to control; assay type: functional; details: MV4-11, po, read-out: GI
MV4-11 [3] = experiment: Increase in p21 protein expression in human MV4-11 cells incubated for 24 hrs by western blot analysis; assay type: functional, cell-based
[4] = Oral bioavailability in ICR mouse at 15 mg/kg measured upto 24 hrs by LC-MS/MS analysis; assay type: ADME, organism-based; details: in vivo
[5] = molecular target: T1, Bromodomain-containing protein 3 (Homo sapiens, UniProt Q15059); experiment: Binding affinity to human recombinant BRD3 BD2 (306 to 417 residues) by fluorescence polarization assay
Target sequence in this assay (Q15059 whole entry, the tested form may be a part): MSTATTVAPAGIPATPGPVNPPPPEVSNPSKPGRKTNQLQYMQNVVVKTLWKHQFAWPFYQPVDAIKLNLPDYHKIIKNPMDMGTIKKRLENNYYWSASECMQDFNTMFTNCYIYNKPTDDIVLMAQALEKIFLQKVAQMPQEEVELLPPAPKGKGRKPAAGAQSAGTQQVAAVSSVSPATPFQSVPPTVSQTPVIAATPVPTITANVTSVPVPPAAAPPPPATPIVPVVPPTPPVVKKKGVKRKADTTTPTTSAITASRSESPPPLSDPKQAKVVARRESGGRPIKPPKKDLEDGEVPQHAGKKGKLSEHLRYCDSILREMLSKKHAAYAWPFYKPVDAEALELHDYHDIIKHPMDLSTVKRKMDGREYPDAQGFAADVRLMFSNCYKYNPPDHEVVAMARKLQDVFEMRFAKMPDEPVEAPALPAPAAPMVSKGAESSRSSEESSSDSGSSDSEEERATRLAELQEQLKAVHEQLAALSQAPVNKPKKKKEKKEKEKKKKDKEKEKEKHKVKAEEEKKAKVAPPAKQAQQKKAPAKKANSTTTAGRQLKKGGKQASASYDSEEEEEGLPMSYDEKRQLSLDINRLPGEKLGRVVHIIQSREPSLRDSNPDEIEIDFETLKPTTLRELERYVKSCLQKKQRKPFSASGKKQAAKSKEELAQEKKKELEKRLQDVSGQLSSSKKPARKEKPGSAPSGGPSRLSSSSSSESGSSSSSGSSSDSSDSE

[6] = Cmax in ICR mouse at 15 mg/kg, po measured upto 24 hrs by LC-MS/MS analysis; assay type: ADME, organism-based; parameters: dose 15 mg/kg, route oral; details: in vivo
[7] = molecular target: T2, Bromodomain-containing protein 4 (Homo sapiens, UniProt O60885); experiment: Binding affinity to human recombinant BRD4 BD1 (44 to 168 residues) by fluorescence polarization assay
MV4-11 [8] = experiment: Antitumour activity against human MV4-11 cells xenografted in BALB/c nu/nu mouse assessed as downregulation of c-Myc expression level in tumor tissue at 150 mg/kg, po administered via gavage as a single dose measured after 24 hrs by western blot analysis; assay type: functional; details: MV4-11, po
[9] = AUC (0 to t) in ICR mouse at 5 mg/kg, iv measured upto 24 hrs by LC-MS/MS analysis; assay type: ADME, organism-based; parameters: dose 5 mg/kg, time < 24 hr, route intravenous; details: in vivo
[10] = Cmax in ICR mouse at 5 mg/kg, iv measured upto 24 hrs by LC-MS/MS analysis; assay type: ADME, organism-based; parameters: dose 5 mg/kg, route intravenous; details: in vivo
MV4-11 [11] = experiment: Downregulation of p21 expression level in tumor tissue in BALB/c nu/nu mouse xenografted with human MV4-11 cells at 150 mg/kg, po administered via gavage as a single dose measured after 24 hrs by western blot analysis; assay type: functional; details: MV4-11, po
MV4-11 [12] = experiment: Downregulation of cMyc mRNA expression in human MV4-11 cells after 24 hrs by qRT-PCR analysis; assay type: functional, cell-based
[13] = molecular target: T3, Bromodomain testis-specific protein (Homo sapiens, UniProt Q58F21); experiment: Binding affinity to human partial length BRDT bromodomain 1 isoform b (N21 to E137 residues) expressed in bacterial expression system by bromoscan assay
[14] = molecular target: T2, Bromodomain-containing protein 4; experiment: Binding affinity to human recombinant BRD4 BD2 (333 to 460 residues) by fluorescence polarization assay
[15] = molecular target: T1, Bromodomain-containing protein 3; experiment: Binding affinity to human partial length BRD3 BD1 (P24 to E144 residues) expressed in bacterial expression system by bromoscan assay
Target sequence in this assay (Q15059 whole entry, the tested form may be a part): as above

[16] = molecular target: T2, Bromodomain-containing protein 4; experiment: Binding affinity to human partial length BRD4 BD2 isoform long (K333 to E460 residues) expressed in bacterial expression system by bromoscan assay
HepG2 [17] = experiment: Downregulation of G6PC in human HepG2 cells after 4 hrs by qRT-PCR analysis; assay type: functional, cell-based
[18] = molecular target: T4, Bromodomain-containing protein 2 (Homo sapiens, UniProt P25440); experiment: Binding affinity to human recombinant BRD2 BD2 (349 to 460 residues) by fluorescence polarization assay
Target sequence in this assay (P25440 whole entry, the tested form may be a part, canonical isoform): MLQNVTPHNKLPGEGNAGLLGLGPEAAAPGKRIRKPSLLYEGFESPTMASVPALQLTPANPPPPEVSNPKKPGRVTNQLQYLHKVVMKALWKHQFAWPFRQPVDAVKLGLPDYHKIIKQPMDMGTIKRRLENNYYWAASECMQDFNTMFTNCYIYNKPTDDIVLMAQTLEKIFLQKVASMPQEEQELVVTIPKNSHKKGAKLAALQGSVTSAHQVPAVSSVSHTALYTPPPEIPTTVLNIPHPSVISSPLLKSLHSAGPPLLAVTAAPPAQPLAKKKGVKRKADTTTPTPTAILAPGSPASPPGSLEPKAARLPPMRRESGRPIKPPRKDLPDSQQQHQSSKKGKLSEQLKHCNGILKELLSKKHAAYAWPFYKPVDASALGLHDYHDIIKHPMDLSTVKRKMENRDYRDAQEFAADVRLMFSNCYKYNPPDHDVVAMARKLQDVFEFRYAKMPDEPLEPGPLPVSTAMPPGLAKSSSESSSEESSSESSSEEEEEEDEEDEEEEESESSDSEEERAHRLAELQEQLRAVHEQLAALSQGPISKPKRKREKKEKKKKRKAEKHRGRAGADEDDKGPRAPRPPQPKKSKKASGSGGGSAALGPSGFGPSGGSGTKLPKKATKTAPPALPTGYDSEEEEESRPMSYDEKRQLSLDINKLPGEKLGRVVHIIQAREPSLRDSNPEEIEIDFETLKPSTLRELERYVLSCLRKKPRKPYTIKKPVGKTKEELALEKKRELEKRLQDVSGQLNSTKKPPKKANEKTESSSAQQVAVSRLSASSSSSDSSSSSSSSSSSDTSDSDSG

[19] = molecular target: T3, Bromodomain testis-specific protein; experiment: Selectivity ratio Kd for human partial length BRDT bromodomain 1 isoform b (N21 to E137 residues) expressed in bacterial expression system to Kd for human partial length BRDT bromodomain 2 isoform b (K250 to E382 residues) expressed in bacterial expression system
[20] = Half-life in ICR mouse at 15 mg/kg, po measured upto 24 hrs by LC-MS/MS analysis; assay type: ADME, organism-based; details: in vivo
[21] = molecular target: T2, Bromodomain-containing protein 4; experiment: Binding affinity to human partial length BRD4 BD1 isoform long (N44 to E168 residues) expressed in bacterial expression system by bromoscan assay
[22] = molecular target: T1, Bromodomain-containing protein 3; experiment: Selectivity ratio of Kd for human partial length BRD3 BD1 (P24 to E144 residues) expressed in bacterial expression system to Kd for human partial length BRD3 BD2 (G306 to P416 residues) expressed in bacterial expression system
Target sequence in this assay (Q15059 2-726 limits assumed): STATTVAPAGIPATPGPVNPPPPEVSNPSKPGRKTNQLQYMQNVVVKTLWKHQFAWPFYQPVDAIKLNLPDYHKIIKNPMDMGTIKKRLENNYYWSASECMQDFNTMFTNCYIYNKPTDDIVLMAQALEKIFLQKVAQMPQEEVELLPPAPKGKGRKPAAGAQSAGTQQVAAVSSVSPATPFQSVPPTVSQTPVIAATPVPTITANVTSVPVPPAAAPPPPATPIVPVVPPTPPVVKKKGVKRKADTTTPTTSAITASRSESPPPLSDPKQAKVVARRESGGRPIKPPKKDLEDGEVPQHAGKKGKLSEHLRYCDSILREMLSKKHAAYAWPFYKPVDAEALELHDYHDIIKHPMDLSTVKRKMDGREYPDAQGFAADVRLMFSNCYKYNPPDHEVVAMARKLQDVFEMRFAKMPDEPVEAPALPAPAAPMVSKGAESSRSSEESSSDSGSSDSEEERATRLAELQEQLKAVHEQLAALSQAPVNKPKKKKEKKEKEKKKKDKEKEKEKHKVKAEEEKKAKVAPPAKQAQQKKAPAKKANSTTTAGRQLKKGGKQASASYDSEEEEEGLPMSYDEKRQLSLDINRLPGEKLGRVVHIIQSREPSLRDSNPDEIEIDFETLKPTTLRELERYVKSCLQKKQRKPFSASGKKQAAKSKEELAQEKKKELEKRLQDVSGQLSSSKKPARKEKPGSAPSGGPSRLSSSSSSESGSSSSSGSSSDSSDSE

MV4-11 [23] = experiment: Antitumour activity against human MV4-11 cells xenografted in BALB/c nu/nu mouse assessed as tumour growth inhibition at 100 mg/kg, po via gavage administered once daily for 21 days and measured every 2 to 3 days by vernier caliper method relative to control; assay type: functional; details: MV4-11, po, read-out: GI
[24] = molecular target: T1, Bromodomain-containing protein 3; experiment: Selectivity index, ratio of Ki for human recombinant BRD3 BD1 (24 to 144 residues) to Ki for human recombinant BRD3 BD2 (306 to 417 residues)
Target sequence in this assay (Q15059 2-726 limits assumed): as above

[25] = molecular target: T1, Bromodomain-containing protein 3; experiment: Binding affinity to human recombinant BRD3 BD1 (24 to 144 residues) by fluorescence polarization assay
Target sequence in this assay (Q15059 whole entry, the tested form may be a part): as the sequence (Q15059 whole entry, the tested form may be a part) above

[26] = molecular target: T3, Bromodomain testis-specific protein; experiment: Binding affinity to human partial length BRDT bromodomain 2 isoform b (K250 to E382 residues) expressed in bacterial expression system by bromoscan assay
MV4-11 [27] = experiment: Upregulation of p21 mRNA expression in human MV4-11 cells after 24 hrs by qRT-PCR analysis; assay type: functional, cell-based
[28] = Volume of distribution at steady state in ICR mouse at 5 mg/kg, iv measured upto 24 hrs by LC-MS/MS analysis; assay type: ADME, organism-based; details: in vivo, read-out: Vdss
[29] = molecular target: T4, Bromodomain-containing protein 2; experiment: Binding affinity to human recombinant BRD2 BD1 (72 to 205 residues) by fluorescence polarization assay
Target sequence in this assay (P25440 whole entry, the tested form may be a part, canonical isoform): as the sequence (P25440 whole entry, the tested form may be a part, canonical isoform) above

[30] = Toxicity in BALB/c nu/nu mouse xenografted with human MV4-11 cells assessed as decrease in body weight at 150 mg/kg, po via gavage once daily for 21 days and measured every 2 to 3 days relative to control; assay type: organism-based; parameters: scale not given: the % may be the effect or the level left; details: in vivo
MV4-11 [31] = experiment: Antitumour activity against human MV4-11 cells xenografted in BALB/c nu/nu mouse assessed as tumour growth inhibition at 150 mg/kg, po via gavage administered once daily for 21 days and measured every 2 to 3 days by vernier caliper method relative to control; assay type: functional; details: MV4-11, po, read-out: GI
HepG2 [32] = experiment: Downregulation of […] in human HepG2 cells after 4 hrs by qRT-PCR analysis; assay type: functional, cell-based
[33] = molecular target: T4, Bromodomain-containing protein 2; experiment: Selectivity ratio of Kd for human partial length BRD2 BD1 isoform 1 (K71 to N194 residues) expressed in bacterial expression system to Kd for human partial length BRD2 BD2 isoform 1 (E348 to D455 residues) expressed in bacterial expression system
Target sequence in this assay (P25440 whole entry, looked up, the tested form may be a part, canonical isoform): as the sequence (P25440 whole entry, the tested form may be a part, canonical isoform) above

[34] = molecular target: T1, Bromodomain-containing protein 3; experiment: Binding affinity to human partial length BRD3 BD2 (G306 to P416 residues) expressed in bacterial expression system by bromoscan assay
Target sequence in this assay (Q15059 whole entry, the tested form may be a part): as the sequence (Q15059 whole entry, the tested form may be a part) above

MV4-11 [35] = experiment: Antiproliferative activity against human MV4-11 cells assessed as cell growth inhibition after 4 days by CCK8 assay; assay type: functional, cell-based; details: MV4-11, 96 h
[36] = AUC (0 to t) in ICR mouse at 15 mg/kg, po measured upto 24 hrs by LC-MS/MS analysis; assay type: ADME, organism-based; parameters: time < 24 hr, dose 15 mg/kg, route oral; details: in vivo
[37] = Clearance in ICR mouse at 5 mg/kg, iv measured upto 24 hrs by LC-MS/MS analysis; assay type: ADME, organism-based; details: in vivo
MV4-11 [38] = experiment: Antitumour activity against human MV4-11 cells xenografted in BALB/c nu/nu mouse assessed as tumour growth inhibition administered via oral gavage once daily for 21 days and measured every 2 to 3 days by vernier caliper method; assay type: functional, cell-based
MV4-11 [39] = experiment: Decrease in c-Myc protein expression in human MV4-11 cells incubated for 24 hrs by western blot analysis; assay type: functional, cell-based
[40] = molecular target: T2, Bromodomain-containing protein 4; experiment: Selectivity ratio of Kd for human partial length BRD4 BD1 isoform long (N44 to E168 residues) expressed in bacterial expression system to Kd for human partial length BRD4 BD2 isoform long (K333 to E460 residues) expressed in bacterial expression system
[41] = Half-life in ICR mouse at 5 mg/kg, iv measured upto 24 hrs by LC-MS/MS analysis; assay type: ADME, organism-based; details: in vivo
MV4-11 [42] = experiment: Antitumour activity against human MV4-11 cells xenografted in BALB/c nu/nu mouse assessed as downregulation of c-Myc expression level in tumor tissue at 150 mg/kg, po administered via gavage as a single dose measured after 6 hrs by western blot analysis; assay type: functional; details: MV4-11, po
[43] = molecular target: T4, Bromodomain-containing protein 2; experiment: Binding affinity to human partial length BRD2 BD1 isoform 1 (K71 to N194 residues) expressed in bacterial expression system by bromoscan assay
Target sequence in this assay (P25440 whole entry, the tested form may be a part, canonical isoform): as the sequence (P25440 whole entry, the tested form may be a part, canonical isoform) above

MV4-11 [44] = experiment: Antitumour activity against human MV4-11 cells xenografted in BALB/c nu/nu mouse assessed as upregulation of p21 expression level in tumor tissue at 150 mg/kg, po administered via gavage as a single dose measured after 6 hrs by western blot analysis; assay type: functional
[45] = molecular target: T4, Bromodomain-containing protein 2; experiment: Binding affinity to human partial length BRD2 BD2 isoform 1 (E348 to D455 residues) expressed in bacterial expression system by bromoscan assay
Target sequence in this assay (P25440 whole entry, the tested form may be a part, canonical isoform): as above

MM1.S = experiment: Antiproliferative activity against human MM1S cells assessed as cell growth inhibition after 4 days by CCK8 assay; assay type: functional, cell-based; details: 96 h
[46] = Toxicity in BALB/c nu/nu mouse xenografted with human MV4-11 cells assessed as decrease in body weight at 60 mg/kg, po via gavage once daily for 6 days and measured every 2 to 3 days relative to control; assay type: organism-based; parameters: scale not given: the % may be the effect or the level left; details: in vivo

## Cc1nnc2n1-c1ccc(-c3cnn(C)c3)cc1[C@H](Nc1ccc(Cl)cc1)CC2
HepG2 [1]
  inhibition: Dose-dependent effect
MV4-11 [2]
  inhibition in vivo at 60 mg/kg: 47%
MV4-11 [3]
  Activity: Dose-dependent effect
[4]
  bioavailability: 59.1%
[5]
  Ki: 5.3 nM
[6]
  Cmax: 2210 ng/mL
[7]
  Ki: 80 nM
MV4-11 [8]
  inhibition in vivo at 150 mg/kg: 43%
[9]
  AUC(0-t) at 24 h: 3320 ng·h/mL
[10]
  Cmax: 5420 ng/mL
MV4-11 [11]
  inhibition in vivo at 150 mg/kg: 18%
MV4-11 [12]
  inhibition: Dose-dependent effect
[13]
  Kd: 64 nM
[14]
  Ki: 7.3 nM
[15]
  Kd: 12 nM
[16]
  Kd: 3.5 nM
HepG2 [17]
  inhibition: Dose-dependent effect
[18]
  Ki: 3.1 nM
[19]
  Selectivity ratio: 21
[20]
  half-life: 57 min
[21]
  Kd: 26 nM
[22]
  Selectivity ratio: 5
MV4-11 [23]
  inhibition in vivo at 100 mg/kg: 58%
[24]
  Ratio Ki: 15
[25]
  Ki: 77.9 nM
[26]
  Kd: 3 nM
MV4-11 [27]
  Activity: Dose-dependent effect
[28]
  Vd: 0.94 L/kg
[29]
  Ki: 95.5 nM
[30]
  Activity: 7%
MV4-11 [31]
  inhibition in vivo at 150 mg/kg: 67%
HepG2 [32]
  inhibition: Dose-dependent effect
[33]
  Selectivity ratio: 38
[34]
  Kd: 2.6 nM
MV4-11 [35]
  IC50: 27 nM
[36]
  AUC(0-t) at 24 h: 5890 ng·h/mL
[37]
  clearance: 25 mL/min/kg
MV4-11 [38]
  inhibition: Dose-dependent effect
MV4-11 [39]
  inhibition: Dose-dependent effect
[40]
  Selectivity ratio: 7
[41]
  half-life: 34.8 min
MV4-11 [42]
  inhibition in vivo at 150 mg/kg: 30%
[43]
  Kd: 45 nM
MV4-11 [44]
  Activity: 46%
[45]
  Kd: 1.2 nM
MM1.S
  IC50: 16.7 nM

## CCNC(=O)C[C@@H]1N=C(c2ccc(Cl)cc2)c2cc(OC)ccc2-n2c(C)nnc21 [MOLIBRESIB]
[46]
  Activity: 11%
